In US20080194482A1, “Selective Apac2 Receptor Peptide Agonists” (priority 2005, published 2008):
Square brackets hold non-standard residues; d marks the D form. Peptide text beside a SMILES is read from it. * marks the point of attachment. Orn = NCCC[C@H](N)C(=O)O; Hexanoyl = CCCCCC(=O)*; Aib = CC(C)(N)C(=O)O

Key:
[1] = Rat serum stability (activity remaining, CHO-VPAC2 DiscoveRx read-out); format: in vitro ADME
In short: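 Peptides preincubated overnight in rat serum at 37 °C without aprotinin versus 4 °C with aprotinin, then tested as 11-point 5× dilutions in duplicate on CHO-VPAC2 cells, 30 min at RT. cAMP measured by DiscoveRx kit against standards; EC50 derived for each aliquot.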

rat VPAC2 receptor = target: T1, rat VPAC2 receptor (Rattus norvegicus, UniProt P35000); experiment: DiscoveRx cAMP assay, in vitro potency at rat VPAC2 receptor; format: cell-based; conditions: CHO-PO cells transiently transfected with rat VPAC2; cAMP generation; mean of two independent runs
T1 construct: expressed in transfected cells; host or cells: CHO-PO (transient, Lipofectamine)
T1 sequence (P35000 23-437): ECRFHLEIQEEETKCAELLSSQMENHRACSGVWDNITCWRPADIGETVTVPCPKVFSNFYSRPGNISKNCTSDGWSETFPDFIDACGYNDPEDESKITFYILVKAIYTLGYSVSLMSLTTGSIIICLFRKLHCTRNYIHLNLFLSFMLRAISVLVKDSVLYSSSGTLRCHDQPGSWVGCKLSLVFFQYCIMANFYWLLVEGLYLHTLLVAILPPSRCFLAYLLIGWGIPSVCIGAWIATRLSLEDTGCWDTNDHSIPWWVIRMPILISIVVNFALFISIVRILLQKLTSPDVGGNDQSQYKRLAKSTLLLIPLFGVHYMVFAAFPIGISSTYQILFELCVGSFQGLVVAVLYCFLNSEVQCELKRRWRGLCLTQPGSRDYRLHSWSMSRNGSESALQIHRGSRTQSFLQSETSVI
Method: DiscoveRx: CHO-PO cells are transiently transfected with rat VPAC1 or VPAC2 receptor DNA using commercially available transfection reagents (Lipofectamine from Invitrogen). The cells are seeded at a density of 10,000/well in a 96-well plate and are allowed to grow for 3 days in […] culture medium. At day 3, the assay is performed.
On the day of the experiment, the medium is removed. Also, the cells are washed twice. The cells are incubated in assay buffer plus IBMX for 15 minutes at room temperature. Afterwards, the stimuli are added and are dissolved in assay buffer. The stimuli are present for 30 minutes. Then, the assay buffer is gently removed. The cell lysis reagent of the DiscoveRx cAMP kit is added. Thereafter, the standard protocol for developing the cAMP signal as described by the manufacturer is used (DiscoveRx Inc., USA). EC50 values for cAMP generation are calculated from the raw signal or are based on absolute cAMP levels as determined by a standard curve performed on each plate.
Results for each agonist are the mean of two independent runs. Rat VPAC1 and VPAC2 results are only generated using the DiscoveRx assay.

human VPAC2 [2] = target: T2, human VPAC2 (Homo sapiens, UniProt P41587); experiment: Alpha screen cAMP assay, in vitro potency at human VPAC2 receptor; format: cell-based; conditions: cAMP generation; single result from two analyses in a single run, some values average of more than one experiment
T2 construct: expressed in transfected cells
T2 sequence (P41587 24-438): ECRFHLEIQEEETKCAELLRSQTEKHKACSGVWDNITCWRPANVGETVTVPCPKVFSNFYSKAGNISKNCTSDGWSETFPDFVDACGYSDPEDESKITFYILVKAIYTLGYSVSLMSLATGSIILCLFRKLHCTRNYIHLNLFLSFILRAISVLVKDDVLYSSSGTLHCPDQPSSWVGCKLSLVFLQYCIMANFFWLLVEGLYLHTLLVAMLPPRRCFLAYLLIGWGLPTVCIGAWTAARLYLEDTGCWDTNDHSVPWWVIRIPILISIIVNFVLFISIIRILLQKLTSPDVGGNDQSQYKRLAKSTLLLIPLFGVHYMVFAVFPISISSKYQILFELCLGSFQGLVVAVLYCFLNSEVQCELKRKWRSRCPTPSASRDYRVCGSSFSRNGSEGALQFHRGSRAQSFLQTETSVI
Method: Alpha screen: Cells are washed in the culture flask once with PBS. Then, the cells are rinsed with enzyme free dissociation buffer. The dissociated cells are removed. The cells are then spun down and washed in stimulation buffer. For each data point, 50,000 cells suspended in stimulation buffer are used. To this buffer, Alpha screen acceptor beads are added along with the stimuli. This mixture is incubated for 60 minutes. Lysis buffer and Alpha screen donor beads are added and are incubated for 60 to 120 minutes. The Alpha screen signal (indicative of intracellular cAMP levels) is read in a suitable instrument (e.g. AlphaQuest from Perkin-Elmer). Steps including Alpha screen donor and acceptor beads are performed in reduced light. The EC50 for cAMP generation is calculated from the raw signal or is based on absolute cAMP levels as determined by a standard curve performed on each plate.
Results for each agonist are, at minimum, from two analyses performed in a single run. For some agonists, the results are the mean of more than one run. The tested peptide concentrations are: 10000, 1000, 100, 10, 3, 1, 0.1, 0.01, 0.003, 0.001, 0.0001 and 0.00001 nM.

human VPAC1 = target: T3, human VPAC1 (Homo sapiens, UniProt P32241); experiment: Filter binding assay, 125I-labeled VIP tracer, VPAC1 membranes; conditions: read-out: Human VPAC1 Receptor Binding (IC50; nM)
T3 construct: expressed in transfected cells
T3 sequence (P32241 31-457): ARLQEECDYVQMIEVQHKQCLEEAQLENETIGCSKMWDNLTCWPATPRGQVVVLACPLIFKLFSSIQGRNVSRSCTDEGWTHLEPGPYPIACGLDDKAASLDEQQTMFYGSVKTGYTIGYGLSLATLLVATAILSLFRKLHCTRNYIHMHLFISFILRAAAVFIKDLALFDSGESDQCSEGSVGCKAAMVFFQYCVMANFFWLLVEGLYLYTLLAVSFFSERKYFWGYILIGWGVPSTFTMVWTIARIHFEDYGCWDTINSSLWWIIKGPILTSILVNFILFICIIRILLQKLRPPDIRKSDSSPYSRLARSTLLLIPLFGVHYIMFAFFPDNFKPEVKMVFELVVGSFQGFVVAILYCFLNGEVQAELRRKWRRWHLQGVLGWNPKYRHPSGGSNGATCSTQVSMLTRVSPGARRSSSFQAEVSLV

human PAC1 = target: T4, human PAC1 (Homo sapiens, UniProt P41586); experiment: Filter binding assay, 125I-labeled PACAP-27 tracer, PAC1 membranes; conditions: read-out: Human PAC1 Receptor Binding (IC50; nM)
T4 construct: expressed in transfected cells
T4 sequence (P41586 21-468): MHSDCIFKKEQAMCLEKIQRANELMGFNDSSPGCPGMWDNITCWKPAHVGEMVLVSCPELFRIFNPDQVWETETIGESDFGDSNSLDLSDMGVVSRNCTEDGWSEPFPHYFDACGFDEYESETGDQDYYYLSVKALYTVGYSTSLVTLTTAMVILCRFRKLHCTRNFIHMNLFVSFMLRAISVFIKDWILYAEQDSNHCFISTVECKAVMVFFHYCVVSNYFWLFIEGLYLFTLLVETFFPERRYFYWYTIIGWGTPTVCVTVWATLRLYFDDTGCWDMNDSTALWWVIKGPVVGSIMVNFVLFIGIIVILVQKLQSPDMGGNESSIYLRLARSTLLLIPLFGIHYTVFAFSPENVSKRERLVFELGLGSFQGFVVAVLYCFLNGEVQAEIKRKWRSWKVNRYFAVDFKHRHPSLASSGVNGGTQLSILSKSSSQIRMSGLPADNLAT
Method: (§1) For this assay, the solutions and equipment include:
(§2) Presoak solution: 0.5% Polyethyleneamine in Aqua dest
(§3) Buffer for flushing filter plates: 25 mM HEPES pH 7.4
(§4) Blocking buffer: 25 mM HEPES pH 7.4; 0.2% protease free BSA
(§5) Assay buffer: 25 mM HEPES pH 7.4; 0.5% protease free BSA
(§6) Dilution and assay plate: PS-Microplate, U form
(§7) Filtration Plate: Multiscreen FB Opaque Plate; 1.0 μM Type B Glasfiber filter
(§8) In order to prepare the filter plates, the presoak solution is aspirated by vacuum filtration. The plates are flushed twice with 200 μL flush buffer. 200 μL blocking buffer is added to the filter plate. The filter plate is then incubated with 200 μL presoak solution for 1 hour at room temperature.
(§9) The assay plate is filled with 25 μL assay buffer, 25 μL membranes (2.5 μg) suspended in assay buffer, 25 μL compound (agonist) in assay buffer, and 25 μL tracer (about 40000 cpm) in assay buffer. The filled plate is incubated for 1 hour with shaking.
(§10) The transfer from assay plate to filter plate is conducted. The blocking buffer is aspirated by vacuum filtration and washed two times with flush buffer. 90 μL is transferred from the assay plate to the filter plate. The 90 μL transferred from assay plate is aspirated and washed three times with 200 μL flush buffer. The plastic support is removed. It is dried for 1 hour at 60° C. 30 μL Microscint is added. The count is performed.

human VPAC2 [3] = target: T2, human VPAC2; experiment: Filter binding assay, 125I-labeled VIP tracer, VPAC2 membranes; conditions: read-out: Human VPAC2 Receptor Binding (IC50; nM)
Method: as §1, §2, §3, §4, §5, §6, §7, §8, §9, §10

Row | Compound | Rat Serum Stability (estimated purity in % after overnight incub.) [1] | EC50 (rat VPAC2 receptor) | EC50 (human VPAC2 [2]) | IC50 (human VPAC1) | IC50 (human PAC1) | IC50 (human VPAC2 [3])
1 | CCCCCC(=O)N[C@@H](Cc1c[nH]cn1)C(=O)N[C@@H](CO)C(=O)N[C@@H](CC(=O)O)C(=O)N[C@@H](C)C(=O)N[C@H](C(=O)N[C@@H](Cc1ccccc1)C(=O)N[C@H](C(=O)N[C@@H](CC(=O)O)C(=O)N[C@@H](CCC(N)=O)C(=O)N[C@@H](Cc1ccc(O)cc1)C(=O)N[C@H](C(=O)N[C@@H](CCCN)C(=O)N[C@@H](CC(C)C)C(=O)N[C@@H](CCCNC(=N)N)C(=O)NC(C)(C)C(=O)N[C@@H](CCC(N)=O)C(=O)N[C@H](C(=O)N[C@@H](C)C(=O)N[C@@H](C)C(=O)NC(C)(C)C(=O)N[C@@H](CCCCN)C(=O)N[C@@H](Cc1ccc(O)cc1)C(=O)N[C@@H](CC(C)C)C(=O)N[C@@H](CCC(N)=O)C(=O)N[C@@H](CO)C(=O)N[C@H](C(=O)N[C@@H](CCCN)C(=O)N[C@@H](CCC(N)=O)C(=O)N[C@@H](CCCN)C(=O)NCC(=O)NCC(=O)N1CCC[C@H]1C(=O)N[C@@H](CO)C(=O)N[C@@H](CO)C(=O)NCC(=O)N[C@@H](C)C(=O)N1CCC[C@H]1C(=O)N1CCC[C@H]1C(=O)N1CCC[C@H]1C(=O)N[C@@H](CO)C(=O)O)[C@@H](C)CC)C(C)C)[C@@H](C)O)[C@@H](C)O)C(C)C [Agonist P363] (Hexanoyl-HSDAVFTDQYT[Orn]LR[Aib]QVAA[Aib]KYLQSI[Orn]Q[Orn]GGPSSGAPPPS-OH; C-terminus assumed) | 81.66% | 0.09 nM | 0.27 nM | > 3000 nM | > 25000 nM | –
2 | CCCCCC(=O)N[C@@H](Cc1c[nH]cn1)C(=O)N[C@@H](CO)C(=O)N[C@@H](CC(=O)O)C(=O)N[C@@H](C)C(=O)N[C@H](C(=O)N[C@@H](Cc1ccccc1)C(=O)N[C@H](C(=O)N[C@@H](CC(=O)O)C(=O)N[C@@H](CC(N)=O)C(=O)N[C@@H](Cc1ccc(O)cc1)C(=O)N[C@H](C(=O)N[C@@H](CC(C)C)C(=O)N[C@@H](CC(C)C)C(=O)N[C@@H](CCCNC(=N)N)C(=O)NC(C)(C)C(=O)N[C@@H](CCC(N)=O)C(=O)N[C@H](C(=O)N[C@@H](C)C(=O)N[C@@H](C)C(=O)NC(C)(C)C(=O)N[C@@H](CCCCN)C(=O)N[C@@H](Cc1ccc(O)cc1)C(=O)N[C@@H](CC(C)C)C(=O)N[C@@H](CCC(N)=O)C(=O)N[C@@H](CO)C(=O)N[C@H](C(=O)N[C@@H](CCCN)C(=O)N[C@@H](CC(N)=O)C(=O)N[C@@H](CCCN)C(=O)NCC(=O)NCC(=O)N1CCC[C@H]1C(=O)N[C@@H](CO)C(=O)N[C@@H](CO)C(=O)NCC(=O)N[C@@H](C)C(=O)N1CCC[C@H]1C(=O)N1CCC[C@H]1C(=O)N1CCC[C@H]1C(=O)N[C@@H](CO)C(=O)O)[C@@H](C)CC)C(C)C)[C@@H](C)O)[C@@H](C)O)C(C)C [Agonist P367] (Hexanoyl-HSDAVFTDNYTLLR[Aib]QVAA[Aib]KYLQSI[Orn]N[Orn]GGPSSGAPPPS-OH; C-terminus assumed) | 55.82% | – | – | > 3000 nM | > 25000 nM | > 100 nM
3 | CCCCCC(=O)N[C@@H](Cc1c[nH]cn1)C(=O)N[C@@H](CO)C(=O)N[C@@H](CC(=O)O)C(=O)N[C@@H](C)C(=O)N[C@H](C(=O)N[C@@H](Cc1ccccc1)C(=O)N[C@H](C(=O)N[C@@H](CC(=O)O)C(=O)N[C@@H](CC(N)=O)C(=O)N[C@@H](Cc1ccc(O)cc1)C(=O)N[C@H](C(=O)N[C@@H](CCCNC(=N)N)C(=O)N[C@@H](CC(C)C)C(=O)N[C@@H](CC(C)C)C(=O)N[C@@H](C)C(=O)N[C@@H](CCCCN)C(=O)N[C@@H](CC(C)C)C(=O)N[C@@H](C)C(=O)N[C@@H](CC(C)C)C(=O)N[C@@H](CCC(N)=O)C(=O)N[C@@H](CCCCN)C(=O)N[C@@H](Cc1ccc(O)cc1)C(=O)N[C@@H](CC(C)C)C(=O)N[C@@H](CCC(N)=O)C(=O)N[C@@H](CO)C(=O)N[C@H](C(=O)N[C@@H](CCCN)C(=O)N[C@@H](CC(N)=O)C(=O)N[C@@H](CCCN)C(=O)NCC(=O)NCC(=O)N1CCC[C@H]1C(=O)N[C@@H](CO)C(=O)N[C@@H](CO)C(=O)NCC(=O)N[C@@H](C)C(=O)N1CCC[C@H]1C(=O)N1CCC[C@H]1C(=O)N1CCC[C@H]1C(=O)N[C@@H](CO)C(=O)O)[C@@H](C)CC)[C@@H](C)O)[C@@H](C)O)C(C)C [Agonist P370] (Hexanoyl-HSDAVFTDNYTRLLAKLALQKYLQSI[Orn]N[Orn]GGPSSGAPPPS-OH; C-terminus assumed) | 41.82% | 0.05 nM | 0.23 nM | > 3000 nM | > 25000 nM | –
4 | CCCCCC(=O)N[C@@H](Cc1c[nH]cn1)C(=O)N[C@@H](CO)C(=O)N[C@@H](CC(=O)O)C(=O)N[C@@H](C)C(=O)N[C@H](C(=O)N[C@@H](Cc1ccccc1)C(=O)N[C@H](C(=O)N[C@@H](CC(=O)O)C(=O)N[C@@H](CC(N)=O)C(=O)N[C@@H](Cc1ccc(O)cc1)C(=O)N[C@H](C(=O)N[C@@H](CCCN)C(=O)N[C@@H](CC(C)C)C(=O)N[C@@H](CCCNC(=N)N)C(=O)NC(C)(C)C(=O)N[C@@H](CCC(N)=O)C(=O)N[C@H](C(=O)N[C@@H](C)C(=O)N[C@@H](C)C(=O)NC(C)(C)C(=O)N[C@@H](CCCCN)C(=O)N[C@@H](Cc1ccc(O)cc1)C(=O)N[C@@H](CC(C)C)C(=O)N[C@@H](CO)C(=O)N[C@@H](CO)C(=O)N[C@H](C(=O)N[C@@H](CCCN)C(=O)N[C@@H](CC(N)=O)C(=O)N[C@@H](CCCN)C(=O)NCC(=O)NCC(=O)N1CCC[C@H]1C(=O)N[C@@H](CO)C(=O)N[C@@H](CO)C(=O)NCC(=O)N[C@@H](C)C(=O)N1CCC[C@H]1C(=O)N1CCC[C@H]1C(=O)N1CCC[C@H]1C(=O)N[C@@H](CO)C(=O)O)[C@@H](C)CC)C(C)C)[C@@H](C)O)[C@@H](C)O)C(C)C [Agonist P383] (Hexanoyl-HSDAVFTDNYT[Orn]LR[Aib]QVAA[Aib]KYLSSI[Orn]N[Orn]GGPSSGAPPPS-OH; C-terminus assumed) | 113.66% | 0.18 nM | 0.12 nM | > 3000 nM | > 25000 nM | –
